Source: EPA's ToxRefDB 2

How the values were obtained:
[1] = tested on: rat; settings: Multigenerational reproductive toxicity study, wistar, Oral, Feed, dose end: 2 generation
[2] = tested on: dog; settings: Chronic toxicity; beagle; Oral; Feed; dose end: 52 week; group: systemic; systemic / clinical chemistry / alkaline phosphatase (alp/alk) / alkaline phosphatase (alp/alk) + systemic / clinical chemistry / …
[3] = tested on: mouse; settings: Carcinogenicity, cd1, Oral, Feed, dose end: 94 week, group: systemic
[4] = tested on: rat; settings: Subchronic oral toxicity in rodents, sprague dawley, Feed, dose end: 13 week, group: systemic, systemic / clinical chemistry / protein / protein + systemic / in life observation / body weight / body weight + systemic / in life …
[5] = tested on: rabbit; settings: Prenatal developmental toxicity study, new zealand white, Oral, Gavage/Intubation, dose end: 18 GD
[6] = tested on: rat; settings: Combined chronic toxicity/carcinogenicity; sprague dawley; Oral; Feed; dose end: 24 month; group: systemic; systemic / in life observation / body weight / body weight + systemic / in life observation / body weight / body weight gain + systemic / …
[7] = tested on: dog; settings: Subchronic oral toxicity in nonrodent, beagle, Feed, dose end: 90 day, group: systemic
[8] = tested on: rat; settings: Combined chronic toxicity/carcinogenicity; fischer; Oral; [Not Specified]; dose end: 105 week; group: systemic; systemic / in life observation / body weight / body weight gain + systemic / pathology microscopic / kidney / cytoplasmic alteration + …
[9] = tested on: rat; settings: Subchronic oral toxicity in rodents, fischer, Feed, dose end: 13 week, group: systemic
[10] = tested on: mouse; settings: Carcinogenicity; other; Oral; Feed; dose end: 104 week; group: systemic; systemic / pathology microscopic / eye / cataract + systemic / pathology microscopic / kidney / vacuolization
[11] = tested on: mouse; settings: Prenatal developmental toxicity study, cd1, Oral, Gavage/Intubation, dose end: 15 GD
[12] = tested on: rat; settings: Carcinogenicity; fischer; Oral; Feed; dose end: 78 week; group: systemic; systemic / in life observation / body weight / body weight gain + systemic / pathology microscopic / peritoneum / neoplasm nos + systemic / …
[13] = tested on: mouse; settings: Carcinogenicity, b6c3f1, Oral, Feed, dose end: 78 week, group: systemic
[14] = tested on: rat; settings: Subchronic oral toxicity in rodents, fischer, Feed, dose end: 45 day, group: systemic, systemic / in life observation / body weight / body weight gain
[15] = tested on: mouse; settings: Subchronic oral toxicity in rodents, b6c3f1, Feed, dose end: 45 day, group: systemic, systemic / in life observation / mortality / mortality
[16] = tested on: rat; settings: Carcinogenicity; other; Oral; Feed; dose end: 24 month; group: systemic; systemic / pathology microscopic / [other] / [other]
[17] = tested on: mouse; settings: Multigenerational reproductive toxicity study, cd1, Oral, Water, dose end: 2 generation, group: offspring
[18] = tested on: mouse; settings: Prenatal developmental toxicity study, cd1, Oral, Gavage/Intubation, dose end: 15 GD; remark: listed apart in the source
[19] = tested on: rat; settings: Prenatal developmental toxicity study, sprague dawley, Oral, Gavage/Intubation, dose end: 15 GD
[20] = tested on: mouse; settings: Prenatal developmental toxicity study, cd1, Oral, [Not Specified], dose end: 14 GD
[21] = group: offspring, systemic / in life observation / body weight / offspring (pup) weight
[22] = group: parental, systemic / in life observation / body weight / body weight + systemic / in life observation / body weight / body weight gain + systemic / in…
[23] = systemic / in life observation / body weight / body weight gain + systemic / organ weight / liver / relative to body weight + systemic / …
[24] = group: developmental, developmental / developmental malformation / bone / [other] + developmental / developmental malformation / bone / misshapen
[25] = group: maternal, reproductive / reproductive performance / aborted / aborted + reproductive / reproductive performance / postimplantation loss / …
[26] = systemic / organ weight / liver / relative to body weight + systemic / pathology microscopic / liver / vacuolization
[27] = systemic / organ weight / liver / relative to body weight + systemic / pathology microscopic / liver / vacuolization + systemic / in life …
[28] = systemic / clinical chemistry / creatinine / creatinine + systemic / hematology / erythrocyte (rbc) count differential / erythrocyte (rbc…
[29] = group: developmental, developmental / developmental malformation / bone / [other] + developmental / developmental malformation / general / [other] + systemic / in…
[30] = group: maternal, reproductive / reproductive performance / implantations / implantations + reproductive / reproductive performance / resorptions / …
[31] = group: maternal, systemic / pathology gross / spleen / enlarged
[32] = systemic / in life observation / body weight / body weight
[33] = systemic / in life observation / body weight / body weight + systemic / in life observation / mortality / mortality
[34] = systemic / in life observation / body weight / offspring (pup) weight + systemic / organ weight / liver / relative to body weight + systemic…
[35] = group: developmental, developmental / developmental malformation / bone / incomplete ossification + systemic / in life observation / body weight / fetal weight + …
[36] = group: maternal, systemic / organ weight / uterus / nos + systemic / in life observation / clinical signs / altered breathing rate + systemic / in life …
[37] = group: developmental, developmental / developmental malformation / bone / [other] + developmental / developmental malformation / bone / delayed ossification + …
[38] = group: maternal, systemic / in life observation / body weight / body weight + systemic / in life observation / food consumption / food consumption + systemic…
[39] = group: developmental, systemic / in life observation / body weight / offspring (pup) weight gain
[40] = group: maternal, systemic / in life observation / mortality / mortality

Structure (SMILES): COCC(C)N(C(=O)CCl)c1c(C)csc1C (centres undefined) [Dimethenamid]
- LEL [1, 21]: 150 mg/kg/day
- LOAEL [1, 21]: 150 mg/kg/day
- NEL [1, 21]: 36 mg/kg/day
- NOAEL [1, 21]: 36 mg/kg/day
- LEL [1, 22]: 150 mg/kg/day
- LOAEL [1, 22]: 150 mg/kg/day
- NEL [1, 22]: 36 mg/kg/day
- NOAEL [1, 22]: 36 mg/kg/day
- LEL [2]: 48.7 mg/kg/day
- LOAEL [2]: 48.7 mg/kg/day
- NEL [2]: 10.1 mg/kg/day
- NOAEL [2]: 10.1 mg/kg/day
- LOAEL ([3]; systemic / in life observation / body weight / body weight gain): 200 mg/kg/day
- LEL [3, 23]: 200 mg/kg/day
- NEL [3, 23]: 40.1 mg/kg/day
- NOAEL [3, 23]: 40.1 mg/kg/day
- LEL [4]: 98 mg/kg/day
- LOAEL [4]: 98 mg/kg/day
- NEL [4]: 33.5 mg/kg/day
- NOAEL [4]: 33.5 mg/kg/day
- LEL [5, 24]: 150 mg/kg/day
- LOAEL [5, 24]: 150 mg/kg/day
- NEL [5, 24]: 75 mg/kg/day
- NOAEL [5, 24]: 75 mg/kg/day
- LEL [5, 25]: 150 mg/kg/day
- LOAEL [5, 25]: 150 mg/kg/day
- NEL [5, 25]: 75 mg/kg/day
- NOAEL [5, 25]: 75 mg/kg/day
- LEL [6]: 36 mg/kg/day
- LOAEL [6]: 36 mg/kg/day
- NEL [6]: 5.1 mg/kg/day
- NOAEL [6]: 5.1 mg/kg/day
- LEL [7, 26]: 33.6 mg/kg/day
- LOAEL [7, 26]: 33.6 mg/kg/day
- NEL [7, 27]: 4.72 mg/kg/day
- NOAEL [7, 27]: 4.72 mg/kg/day

Structure (SMILES): CCOc1nc(F)cc2nc(S(=O)(=O)Nc3c(Cl)cccc3Cl)nn12 [Diclosulam]
- LEL [8]: 102 mg/kg/day
- LOAEL [8]: 102 mg/kg/day
- NEL [8]: 5.1 mg/kg/day
- NOAEL [8]: 5.1 mg/kg/day
- LEL [9, 28]: 50 mg/kg/day
- NEL [9, 28]: < 50 mg/kg/day
- NOAEL [9, 28]: 50 mg/kg/day
- LOAEL ([9]; systemic / organ weight / liver / relative to body weight + systemic / pathology microscopic / liver / hypertrophy + systemic / pathology …): 100 mg/kg/day
- LEL [10]: 51.3 mg/kg/day
- LOAEL [10]: 51.3 mg/kg/day
- NEL [10]: < 51.3 mg/kg/day
- NOAEL [10]: < 51.3 mg/kg/day

Structure (SMILES): Nc1ccc(S(=O)(=O)c2ccc(N)cc2)cc1 [Dapsone]
- LEL [11, 29]: 200 mg/kg/day
- LOAEL [11, 29]: > 200 mg/kg/day
- NEL [11, 29]: 100 mg/kg/day
- NOAEL [11, 29]: ≥ 200 mg/kg/day
- LOAEL [11, 30]: > 200 mg/kg/day
- NOAEL [11, 30]: ≥ 200 mg/kg/day
- LEL [11, 31]: 50 mg/kg/day
- NEL [11, 31]: < 50 mg/kg/day
- LEL [12]: 30 mg/kg/day
- LOAEL [12]: > 60 mg/kg/day
- NEL [12]: < 30 mg/kg/day
- NOAEL [12]: ≥ 60 mg/kg/day
- LOAEL [13, 32]: 75 mg/kg/day
- NOAEL [13, 32]: < 75 mg/kg/day
- LEL [13, 33]: 75 mg/kg/day
- NEL [13, 33]: < 75 mg/kg/day
- LEL [14]: 60 mg/kg/day
- LOAEL [14]: 60 mg/kg/day
- NEL [14]: < 60 mg/kg/day
- NOAEL [14]: < 60 mg/kg/day
- LEL [15]: 300 mg/kg/day
- LOAEL [15]: > 7500 mg/kg/day
- NEL [15]: < 300 mg/kg/day
- NOAEL [15]: ≥ 7500 mg/kg/day

Structure (SMILES): OCCOCCOCCO [Triethylene glycol]
- LEL [16]: 4 mg/kg/day
- LOAEL [16]: > 4 mg/kg/day
- NEL [16]: < 4 mg/kg/day
- NOAEL [16]: ≥ 4 mg/kg/day
- LEL ([17]; systemic / in life observation / body weight / offspring (pup) weight): 2000 mg/kg/day
- NEL ([17]; systemic / in life observation / body weight / offspring (pup) weight + systemic / organ weight / liver / relative to body weight): 400 mg/kg/day
- LOAEL [17, 34]: > 4000 mg/kg/day
- NOAEL [17, 34]: ≥ 4000 mg/kg/day
- LEL ([18]; group: developmental, developmental / developmental malformation / bone / incomplete ossification + systemic / in life observation / body weight / fetal weight): 5630 mg/kg/day
- LOAEL [18, 35]: > 11300 mg/kg/day
- NEL [18, 35]: 563 mg/kg/day
- NOAEL [18, 35]: ≥ 11300 mg/kg/day
- LEL ([18]; group: maternal, systemic / organ weight / uterus / nos): 5630 mg/kg/day
- LOAEL [18, 36]: > 11300 mg/kg/day
- NEL [18, 36]: 563 mg/kg/day
- NOAEL [18, 36]: ≥ 11300 mg/kg/day
- LEL [19, 37]: 11300 mg/kg/day
- LOAEL [19, 37]: > 11300 mg/kg/day
- NEL [19, 37]: 5630 mg/kg/day
- NOAEL [19, 37]: ≥ 11300 mg/kg/day
- LEL [19, 38]: 5630 mg/kg/day
- LOAEL [19, 38]: > 11300 mg/kg/day
- NEL [19, 38]: 1130 mg/kg/day
- NOAEL [19, 38]: ≥ 11300 mg/kg/day
- LEL [20, 39]: 11300 mg/kg/day
- LOAEL [20, 39]: 11300 mg/kg/day
- NEL [20, 39]: 4500 mg/kg/day
- NOAEL [20, 39]: 4500 mg/kg/day
- LEL [20, 40]: 11300 mg/kg/day
- LOAEL [20, 40]: 11300 mg/kg/day
- NEL [20, 40]: 4500 mg/kg/day
- NOAEL [20, 40]: 4500 mg/kg/day
